We go through six compounds from patent US20200016059A1, “PERSONAL CARE COMPOSITIONS WITH GLUTATHIONE PRECURSOR COMPRISING NICOTINAMIDE AND AMINO ACIDS” (Conopco, Inc., d/ba UNILEVER, priority 2016, published 2020).

Holding throughout (format): cell-based
For one series, the system named is Aged Human Keratinocytes. As to the kind of experiment: Glutathione assay (total glutathione, GSH-GSSG Glo) after menadione challenge. The following applies: for % Protection (improvement vs. vehicle control + menadione): glutathione; for Mean (uM glutathione): Table 1A. The source says: The medium was refreshed every 2-3 days. Subsequently, cells were trypsinized at 90% confluency and seeded at a density of 1×10^4 per well into 96-well plates with white wall and clear bottom. […] The concentration of all amino acids constituting the GAP mixture used in this assay are designated in the data tables, and fully described in the abbreviations list below. After one or two hours of pre-treatment with GAP (and additional test reagents where described), keratinocytes were then challenged with 25 uM menadione (Sigma-Aldrich), a known inducer of oxidative stress. […] In summary, after cell treatment, the media was removed and replaced with a cell lysis reagent for 5 minutes at 20-25° C.; note, all remaining steps were also conducted at 20-25° C. Next, a luciferase generation reagent was added to each well and incubated for 30 minutes. Following this step, a luciferin detection reagent was added to each well and plates were incubated for 15 minutes. Finally, plates were then read for luminescence in a FlexStation 3 plate reader (Molecular Devices). Total glutathione levels were calculated after interpolation of glutathione concentrations from a standard curve. Experimental conditions were typically conducted in at least triplicate determinations. Statistical significance was calculated using 1-way ANOVA. Percent protection was calculated by using the calculated glutathione levels from each experiment in the following equation: […]

Series [1] concerns Human Keratinocytes. Nature of the series: Cell viability assay (CCK-8). The following applies: for % Protection (improvement vs. vehicle control + menadione): cell viability. On the procedure: The medium was refreshed every other day. Subsequently, cells were trypsinized at 90% confluency and seeded at a density of 2×10^4 per well into 96-well transparent tissue culture plates. On the second day after seeding, cell medium was replaced with treatments as described above in ROS assay section. After 18 hours, […] (CCK-8) reagent (Dojindo, Kumamoto, Japan) was diluted 1:10 in HBSS and incubated with cells for 4 h at 37° C. in a humidified incubator. Optical absorption at 450 nm was measured using a Tecan Safire2 plate reader. […] Where indicated, percent protection was calculated as a comparison to menadione alone treatment, using the measured relative absorbance units in the following equation: […]

For series [2], the system named is Human Keratinocytes. As to the kind of experiment: Reactive oxygen species (ROS) assay, CellROX green. Conditions: for % Protection (improvement vs. vehicle control + menadione): ROS. As to the method: The medium was refreshed every other day. Subsequently, cells were trypsinized at 90% confluency and seeded at a density of 1-2×10^4 per well into 96-well plates with black wall and clear bottom. On the second day after seeding, cell medium was replaced with Hank's Balanced Salt Solution (HBSS) with or without menadione (10-25 uM), GAP (typically at 49 uM pyroglutamic acid, 60 uM cystine, 194 uM glycine), GAP vehicle (0.2 mM NaOH, pH 7.5), above-described additional test reagents, combinations of GAP with additional test reagents, or L-cystine esters alone and incubated for additional 18 hours. For ROS detection, CellROX green (Life Tech, Thermo Fisher Scientific, Rockford, USA) reagent was added into each well to a final concentration of 15-25 uM and incubated for additional 2-4 hours at 37° C. in a humidified incubator. The ROS fluorescence was detected using a Tecan microplate reader (Excitation/Emission=490/525). […] Where indicated, percent protection was calculated as a comparison to menadione alone treatment, using the measured relative fluorescent units in the following equation: ROS levels were evaluated together with cell viability because it is possible to get a false negative for ROS if treatment is so toxic that at the time of assay, cells are dead (and there are no longer any detectable ROS). Decrease in ROS levels is meaningful if cells are still viable.

Setting [3] is: cystine ester at 80 uM + menadione.
[4] abbreviates: cystine ester at 20 uM + menadione.
The mark [5] stands for this setting: cystine ester at 40 uM + menadione.
Setting [6] is: cystine ester at 160 uM + menadione.
Setting [7] is: Table 1A glutathione, test reagent at 0.5 mM, alone or with GAP 10, + 25 uM menadione.
Setting [8] is: nicotinamide / nicotinamide riboside / picolinamide at 0.5 mM, alone or with GAP 10, + 25 uM menadione.
Where [9] appears, read: Table 1A glutathione, test reagent at 5 mM, alone or with GAP 10, + 25 uM menadione.
[10] abbreviates: Table 1A glutathione, test reagent at 10 mM, alone or with GAP 10, + 25 uM menadione.
Where [11] appears, read: nicotinamide / picolinamide at 5 mM, alone or with GAP 10, + 25 uM menadione.
Setting [12] is: nicotinamide / picolinamide at 10 mM, alone or with GAP 10, + 25 uM menadione.
Setting [13] is: Table 1B, vs menadione alone, nicotinamide 10 mM, GAP typically 49/60/194 uM.

SMILES strings stand for the structures.

Turning to `COC(=O)[C@@H](N)CSSC[C@H](N)C(=O)OC.Cl.Cl` [CDME, L-Cystine dimethyl ester dihydrochloride], the “Mean (μm glutathione)” value in the series with Aged Human Keratinocytes (setting [3]) is reported as 1.09^1,2 μm. The “% Protection (improvement vs. vehicle control + menadione)” value in the series on Aged Human Keratinocytes (setting [3]) is on record as 31^1,2%; with Human Keratinocytes [1] (setting [4]), 30.2^1,2%; in the series with Human Keratinocytes [1] (setting [5]), 33.4^1,2%; in the series with Human Keratinocytes [1] (setting [3]), 24.6^1,2%; with Human Keratinocytes [1] (setting [6]) it was 51.7^1,2%; in the series with Human Keratinocytes [2] (setting [4]), 18.2^2%. Besides, the “% Protection (improvement vs. vehicle control + menadione)” value with Human Keratinocytes [2] (setting [5]) was 15.5^1,2%; with Human Keratinocytes [2] (setting [3]), 13.3^1,2%; in the series with Human Keratinocytes [2] (setting [6]), 25.7^2%. Further, the “Cell viability (% of vehicle control)” value in the series on Human Keratinocytes [1] (setting [4]) is 90.9^1,2 % of vehicle control; in the series with Human Keratinocytes [1] (setting [5]), 93.1^1,2 % of vehicle control; with Human Keratinocytes [1] (setting [3]), 87.0^1,2 % of vehicle control; in the series with Human Keratinocytes [1] (setting [6]), 105.9^1,2 % of vehicle control.
Consider `CCOC(=O)[C@@H](N)CSSC[C@H](N)C(=O)OCC.Cl.Cl` [DEC, Diethyl L-cystinate dihydrochloride], for which the results for the “Mean (μm glutathione)” value in the series on Aged Human Keratinocytes (setting [5]) and in the series with Aged Human Keratinocytes (setting [3]) were 0.54^1,2 μm and 2.72^1,2 μm, respectively. Moreover, the “% Protection (improvement vs. vehicle control + menadione)” value is 13^1,2% in the series with Aged Human Keratinocytes (setting [5]); 93^1,2% with Aged Human Keratinocytes (setting [3]); 48.9^2% in the series with Human Keratinocytes [1] (setting [4]); 72.7^1,2% in the series on Human Keratinocytes [1] (setting [5]); 78.3^1,2% in the series with Human Keratinocytes [1] (setting [3]); 65.9^1,2% in the series on Human Keratinocytes [1] (setting [6]). In addition, the “% Protection (improvement vs. vehicle control + menadione)” value in the series with Human Keratinocytes [2] (setting [4]) was 38.0^1,2%; in the series with Human Keratinocytes [2] (setting [5]), 43.6^1,2%; in the series with Human Keratinocytes [2] (setting [3]) it was 37.7^1,2%; in the series on Human Keratinocytes [2] (setting [6]), 32.4^1,2%. Also, the “Cell viability (% of vehicle control)” value is recorded as 109.8^2 % of vehicle control in the series with Human Keratinocytes [1] (setting [4]), 127.3^1,2 % of vehicle control in the series on Human Keratinocytes [1] (setting [5]), 131.5^1,2 % of vehicle control in the series on Human Keratinocytes [1] (setting [3]) and 122.3^1,2 % of vehicle control with Human Keratinocytes [1] (setting [6]).
Consider `CC(C)(C)OC(=O)[C@@H](N)CSSC[C@H](N)C(=O)OC(C)(C)C.Cl.Cl` [DTBC, Ditert-butyl L-cystinate dihydrochloride], for which the “Mean (μm glutathione)” value with Aged Human Keratinocytes (setting [5]) is given as 0.17^1 μm; with Aged Human Keratinocytes (setting [3]), 0.19^1 μm. Moreover, the “% Protection (improvement vs. vehicle control + menadione)” value with Aged Human Keratinocytes (setting [5]) is reported as 0^1%; in the series on Aged Human Keratinocytes (setting [3]), 1^1%; with Human Keratinocytes [1] (setting [4]), 6.0%; in the series on Human Keratinocytes [1] (setting [5]), 3.0%; in the series with Human Keratinocytes [1] (setting [3]), −0.1%; in the series with Human Keratinocytes [1] (setting [6]), 41.3^2%. Also, the “% Protection (improvement vs. vehicle control + menadione)” value was 2.2% in the series on Human Keratinocytes [2] (setting [4]), 13.8^1,2% with Human Keratinocytes [2] (setting [5]), 28.4^1,2% in the series with Human Keratinocytes [2] (setting [3]) and 41.1^1,2% in the series on Human Keratinocytes [2] (setting [6]). Further, the “Cell viability (% of vehicle control)” value in the series on Human Keratinocytes [1] (setting [4]) is reported as 78.1^1 % of vehicle control; in the series on Human Keratinocytes [1] (setting [5]), 75.9^1 % of vehicle control; in the series with Human Keratinocytes [1] (setting [3]), 73.6^1 % of vehicle control; in the series with Human Keratinocytes [1] (setting [6]), 104.2^2 % of vehicle control.
In the case of `NC(=O)c1ccc[n+]([C@@H]2O[C@H](CO)[C@@H](O)[C@H]2O)c1` [Nicotinamide riboside, nicotinamide riboside], the “% Protection” value in the series with Aged Human Keratinocytes (setting [7]) is on record as 0%. In addition, the “Mean (uM glutathione)” value in the series with Aged Human Keratinocytes (setting [8]) stood at 0.16 µM.
For `NC(=O)c1cccnc1` [Nicotinamide], the “% Protection” value in the series with Aged Human Keratinocytes (setting [7]) is recorded as 0%; in the series on Aged Human Keratinocytes (setting [9]) it was 0%; in the series on Aged Human Keratinocytes (setting [10]) it was 1%; in the series on Aged Human Keratinocytes (Table 2A glutathione, nicotinamide at 5 mM, alone or with amino acids, + menadione) it was 3^1%. In addition, the “Mean (uM glutathione)” value in the series with Aged Human Keratinocytes (setting [8]) was determined as 0.17 µM; with Aged Human Keratinocytes (setting [11]), 0.14 µM; in the series with Aged Human Keratinocytes (setting [12]), 0.20 µM. In addition, the “Mean (Glutathione Synthesis)” value in the series on Aged Human Keratinocytes (Table 2A, nicotinamide at 5 mM, alone or with amino acids, + menadione) is 0.13^1. In addition, in the series on Human Keratinocytes [1] (Table 1B, + menadione, 18 h, nicotinamide 10 mM, GAP typically 49/60/194 uM), the “cell viability (% of control)” value is on record as 92.90^3 % of control. In addition, the “% Protection (cell viability)” value in the series with Human Keratinocytes [1] (setting [13]) is reported as 15.41^3%. The “ROS production (% of control)” value with Human Keratinocytes [2] (Table 1B, + menadione, 18 h, nicotinamide 10 mM, GAP typically 49 uM pyroglutamic acid, 60 uM cystine, 194 uM glycine) is on record as 231.00^3 % of control. Further, in the series on Human Keratinocytes [2] (setting [13]), the “% Protection (ROS)” value is given as 17.70^3%.
In the case of `NC(=O)c1ccccn1` [Picolinamide, picolinamide], the “% Protection” value was found to be 2% in the series with Aged Human Keratinocytes (setting [7]), 0% in the series on Aged Human Keratinocytes (setting [9]) and 0% in the series on Aged Human Keratinocytes (setting [10]). For the same compound, the “Mean (uM glutathione)” value in the series on Aged Human Keratinocytes (setting [8]) worked out at 0.23 µM; in the series with Aged Human Keratinocytes (setting [11]) it was 0.18 µM; in the series on Aged Human Keratinocytes (setting [12]) it was 0.16 µM.
